Patent publication US20050009840A1 (SUGEN, INC., priority 2003, published 2005)

Target: T1, Met kinase domain (GST fusion protein) (Homo sapiens, UniProt P08581)
T1 construct: Purified GST fusion protein containing the Met kinase domain
Test: Met transphosphorylation assay (ELISA, poly(glu-tyr) substrate);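 further: Cell-free ELISA with plate-bound poly(Glu:Tyr 4:1) phosphorylated by GST-fused Met kinase domain plus ATP and Mn2+, phosphotyrosine detected by anti-phosphotyrosine antibody with HRP and ABTS read-out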
Type: biochemical
Settings: read-out: Met IC50

T1 sequence (P08581 1078-1345 limits assumed): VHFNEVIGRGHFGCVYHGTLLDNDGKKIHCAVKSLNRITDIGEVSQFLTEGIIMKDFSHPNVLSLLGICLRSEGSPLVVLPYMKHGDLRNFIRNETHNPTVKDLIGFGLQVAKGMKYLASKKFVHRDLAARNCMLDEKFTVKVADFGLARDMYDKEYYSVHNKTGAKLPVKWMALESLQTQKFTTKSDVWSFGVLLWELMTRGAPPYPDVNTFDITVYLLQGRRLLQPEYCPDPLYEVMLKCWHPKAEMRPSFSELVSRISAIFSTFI

**Q.** With `CC(Oc1nc(-c2cccc(C(=O)N3CCN(C)CC3)c2)cnc1N)c1c(Cl)ccc(F)c1Cl` (stereo not drawn) [II-130, (3-{5-Amino-6-[1-(2,6-dichloro-3-fluoro-phenyl)-ethoxy]-pyrazin-2-yl}-phenyl)-(4-methyl-piperazin-1-yl)-methanone] as the compound, how does the IC50 read?
**A.** The IC50 was 170 nM.

**Q.** Which IC50 does the source give for `CC(Oc1nc(-c2cccc(C(=O)N3C[C@@H](C)N[C@@H](C)C3)c2)cnc1N)c1c(Cl)ccc(F)c1Cl` (stereo partly drawn) [II-131, (3-{5-Amino-6-[1-(2,6-dichloro-3-fluoro-phenyl)-ethoxy]-pyrazin-2-yl}-phenyl)-((3R,5S)-3,5-dimethyl-piperazin-1-yl)-methanone] here?
**A.** The IC50 was 120 nM.

**Q.** `CC(Oc1nc(-c2cccc(C(=O)NC3CCN(C)CC3)c2)cnc1N)c1c(Cl)ccc(F)c1Cl` (stereo not drawn) [II-132, 3-{5-Amino-6-[1-(2,6-dichloro-3-fluoro-phenyl)-ethoxy]-pyrazin-2-yl}-N-(1-methyl-piperidin-4-yl)-benzamide] was tested. Which IC50 did it give?
**A.** The IC50 was 130 nM.

**Q.** Which IC50 does the source give for `CC(Oc1nc(-c2cccc(C(=O)NCCN3CCCC3)c2)cnc1N)c1c(Cl)ccc(F)c1Cl` (stereo not drawn) [II-133, 3-{5-Amino-6-[1-(2,6-dichloro-3-fluoro-phenyl)-ethoxy]-pyrazin-2-yl}-N-(2-pyrrolidin-1-yl-ethyl)-benzamide] here?
**A.** Its IC50 is 170 nM.

**Q.** With `CC(Oc1nc(-c2cccc(C(=O)NCCN3CCOCC3)c2)cnc1N)c1c(Cl)ccc(F)c1Cl` (stereo not drawn) [II-134, 3-{5-Amino-6-[1-(2,6-dichloro-3-fluoro-phenyl)-ethoxy]-pyrazin-2-yl}-N-(2-morpholin-4-yl-ethyl)-benzamide] as the compound, how does the IC50 read?
**A.** The IC50 was 210 nM.

**Q.** For `CC(Oc1nc(-c2cccc(C(=O)NCCCN3CCOCC3)c2)cnc1N)c1c(Cl)ccc(F)c1Cl` (stereo not drawn) [II-135, 3-{5-Amino-6-[1-(2,6-dichloro-3-fluoro-phenyl)-ethoxy]-pyrazin-2-yl}-N-(3-morpholin-4-yl-propyl)-benzamide], which IC50 is on record?
**A.** Its IC50 is 260 nM.

**Q.** How did the IC50 turn out when `CC(Oc1nc(-c2cccc(C(=O)N3CCC(NC4CC4)CC3)c2)cnc1N)c1c(Cl)ccc(F)c1Cl` (stereo not drawn) [II-136, (3-{5-Amino-6-[1-(2,6-dichloro-3-fluoro-phenyl)-ethoxy]-pyrazin-2-yl}-phenyl)-(4-cyclopropylamino-piperidin-1-yl)-methanone] was run?
**A.** The IC50 was 150 nM.

**Q.** Which IC50 does the source give for `CC(Oc1nc(-c2cccc(C(=O)NC[C@H](O)CN3CCOCC3)c2)cnc1N)c1c(Cl)ccc(F)c1Cl` (stereo partly drawn) [II-137, 3-{5-Amino-6-[1-(2,6-dichloro-3-fluoro-phenyl)-ethoxy]-pyrazin-2-yl}-N-((S)-2-hydroxy-3-morpholin-4-yl-propyl)-benzamide] here?
**A.** The IC50 was 300 nM.

**Q.** With `CC(Oc1nc(-c2cccc(C(=O)NC[C@@H](O)CN3CCCC3)c2)cnc1N)c1c(Cl)ccc(F)c1Cl` (stereo partly drawn) [II-138, 3-{5-Amino-6-[1-(2,6-dichloro-3-fluoro-phenyl)-ethoxy]-pyrazin-2-yl}-N-((R)-2-hydroxy-3-pyrrolidin-1-yl-propyl)-benzamide] as the compound, how does the IC50 read?
**A.** The IC50 was 130 nM.

**Q.** How did the IC50 turn out when `CC(Oc1cc(-c2cccc(C(=O)N3CCC(N4CCCC4)CC3)c2)cnc1N)c1c(Cl)ccc(F)c1Cl` (stereo not drawn) [II-139, (3-{6-Amino-5-[1-(2,6-dichloro-3-fluoro-phenyl)-ethoxy]-pyridin-3-yl}-phenyl)-(4-pyrrolidin-1-yl-piperidin-1-yl)-methanone] was run?
**A.** The IC50 was 71 nM.

**Q.** How did the IC50 turn out when `CCN(CC)CCS(=O)(=O)Nc1ccc(-c2cnc(N)c(OC(C)c3c(Cl)ccc(F)c3Cl)n2)cc1` (stereo not drawn) [II-140, 2-Diethylamino-ethanesulfonic acid (4-{5-amino-6-[1-(2,6-dichloro-3-fluoro-phenyl)-ethoxy]-pyrazin-2-yl}-phenyl)-amide] was run?
**A.** The IC50 was 350 nM.

**Q.** Which IC50 does the source give for `CC(Oc1nc(-c2ccc(NS(=O)(=O)CCN3CCC(O)CC3)cc2)cnc1N)c1c(Cl)ccc(F)c1Cl` (stereo not drawn) [II-141, 2-(4-Hydroxy-piperidin-1-yl)-ethanesulfonic acid (4-{5-amino-6-[1-(2,6-dichloro-3-fluoro-phenyl)-ethoxy]-pyrazin-2-yl}-phenyl)-amide] here?
**A.** Its IC50 is 210 nM.

**Q.** `CC(Oc1nc(-c2ccc(NS(=O)(=O)CCN(C)C)cc2)cnc1N)c1c(Cl)ccc(F)c1Cl` (stereo not drawn) [II-142, 2-Dimethylamino-ethanesulfonic acid (4-{5-amino-6-[1-(2,6-dichloro-3-fluoro-phenyl)-ethoxy]-pyrazin-2-yl}-phenyl)-amide] was tested. Which IC50 did it give?
**A.** The IC50 was 220 nM.

**Q.** `CC(Oc1nc(-c2ccc(NS(=O)(=O)CCN3CC[C@@H](O)C3)cc2)cnc1N)c1c(Cl)ccc(F)c1Cl` (stereo partly drawn) [II-143, 2-((R)-3-Hydroxy-pyrrolidin-1-yl)-ethanesulfonic acid (4-{5-amino-6-[1-(2,6-dichloro-3-fluoro-phenyl)-ethoxy]-pyrazin-2-yl}-phenyl)-amide] was tested. Which IC50 did it give?
**A.** Its IC50 is 190 nM.

**Q.** With `CC(Oc1nc(-c2ccc(NS(=O)(=O)CCN3CCCC3)cc2)cnc1N)c1c(Cl)ccc(F)c1Cl` (stereo not drawn) [II-144, 2-Pyrrolidin-1-ylethanesulfonic acid (4-{5-amino-6-[1-(2,6-dichloro-3-fluoro-phenyl)-ethoxy]-pyrazin-2-yl}-phenyl)-amide] as the compound, how does the IC50 read?
**A.** Its IC50 is 360 nM.

**Q.** For `CC(Oc1nc(-c2ccc(C(=O)O)cc2)cnc1N)c1c(Cl)ccc(F)c1Cl` (stereo not drawn) [II-145, 4-{5-Amino-6-[1-(2,6-dichloro-3-fluoro-phenyl)-ethoxy)-pyrazin-2-yl)benzoic acid], which IC50 is on record?
**A.** Its IC50 is 1560 nM.

**Q.** Which IC50 does the source give for `CC(Oc1nc(-c2ccc(C(=O)NC[C@@H](O)CN3CCCC3)cc2)cnc1N)c1c(Cl)ccc(F)c1Cl` (stereo partly drawn) [II-146, 4-{5-Amino-6-[1-(2,6-dichloro-3-fluoro-phenyl)-ethoxy]-pyrazin-2-yl}-N-((R)-2-hydroxy-3-pyrrolidin-1-yl-propyl)-benzamide] here?
**A.** Its IC50 is 150 nM.

**Q.** For `CC(Oc1nc(-c2ccc(C(=O)N3CCC(NC4CC4)CC3)cc2)cnc1N)c1c(Cl)ccc(F)c1Cl` (stereo not drawn) [II-147, (4-{5-Amino-6-[1-(2,6-dichloro-3-fluoro-phenyl)-ethoxy]-pyrazin-2-yl}-phenyl)-(4-cyclopropylamino-piperidin-1-yl)-methanone], which IC50 is on record?
**A.** Its IC50 is 130 nM.

**Q.** Which IC50 does the source give for `CC(Oc1nc(-c2ccc(C(=O)NC[C@H](O)CN3CCCC3)cc2)cnc1N)c1c(Cl)ccc(F)c1Cl` (stereo partly drawn) [II-148] here?
**A.** Its IC50 is 120 nM.

**Q.** Which IC50 does the source give for `CC(Oc1nc(-c2ccc(C(=O)NC[C@@H](O)CN3CCOCC3)cc2)cnc1N)c1c(Cl)ccc(F)c1Cl` (stereo partly drawn) [II-149, 4-{5-Amino-6-[1-(2,6-dichloro-3-fluoro-phenyl)-ethoxy]-pyrazin-2-yl}-N-((R)-2-hydroxy-3-morpholin-4-yl-propyl)-benzamide] here?
**A.** The IC50 was 130 nM.

**Q.** With `CC(Oc1nc(-c2ccc(C(=O)NC3CCN(C)CC3)cc2)cnc1N)c1c(Cl)ccc(F)c1Cl` (stereo not drawn) [II-150, 4-{5-Amino-6-[1-(2,6-dichloro-3-fluoro-phenyl)-ethoxy]-pyrazin-2-yl}-N-(1-methyl-piperidin-4-yl)-benzamide] as the compound, how does the IC50 read?
**A.** The IC50 was 68 nM.

**Q.** `CC(Oc1nc(-c2ccc(C(=O)N3CCC[C@H]3CN3CCCC3)cc2)cnc1N)c1c(Cl)ccc(F)c1Cl` (stereo partly drawn) [II-151, (4-{5-Amino-6-[1-(2,6-dichloro-3-fluoro-phenyl)-ethoxy]-pyrazin-2-yl}-phenyl)-((S)-2-pyrrolidin-1-ylmethyl-pyrrolidin-1-yl)-methanone] was tested. Which IC50 did it give?
**A.** Its IC50 is 180 nM.

**Q.** Which IC50 does the source give for `CC(Oc1nc(-c2ccc(C(=O)N3CCC(N4CCCC4)CC3)cc2)cnc1N)c1c(Cl)ccc(F)c1Cl` (stereo not drawn) [II-152, (4-{5-Amino-6-[1-(2,6-dichloro-3-fluoro-phenyl)-ethoxy]-pyrazin-2-yl}-phenyl)-(4-pyrrolidin-1-yl-piperidin-1-yl)-methanone] here?
**A.** The IC50 was 110 nM.

**Q.** Which IC50 does the source give for `CC(Oc1nc(-c2ccc(C(=O)NCCN3CCOCC3)cc2)cnc1N)c1c(Cl)ccc(F)c1Cl` (stereo not drawn) [II-153, 4-{5-Amino-6-[1-(2,6-dichloro-3-fluoro-phenyl)-ethoxy]-pyrazin-2-yl}-N-(2-morpholin-4-yl-ethyl)-benzamide] here?
**A.** Its IC50 is 102 nM.

**Q.** With `CC(Oc1nc(-c2ccc(C(=O)N3CCN(C)CC3)cc2)cnc1N)c1c(Cl)ccc(F)c1Cl` (stereo not drawn) [II-154, (4-{5-Amino-6-[1-(2,6-dichloro-3-fluoro-phenyl)-ethoxy]-pyrazin-2-yl}-phenyl)-(4-methyl-piperazin-1-yl)-methanone] as the compound, how does the IC50 read?
**A.** The IC50 was 160 nM.

**Q.** For `CC(Oc1nc(-c2ccc(C(=O)N3C[C@@H](C)N[C@@H](C)C3)cc2)cnc1N)c1c(Cl)ccc(F)c1Cl` (stereo partly drawn) [II-155, (4-{5-Amino-6-[1-(2,6-dichloro-3-fluoro-phenyl)-ethoxy]-pyrazin-2-yl}-phenyl)-((3R,5S)-3,5-dimethyl-piperazin-1-yl)-methanone], which IC50 is on record?
**A.** Its IC50 is 95 nM.

**Q.** `CC(Oc1nc(-c2ccc(C(=O)N3CCC(N4CCCC4)CC3)cc2)cnc1N)c1c(Cl)cccc1Cl` (stereo not drawn) [II-157, (4-{5-Amino-6-[1-(2,6-dichloro-phenyl)-ethoxy]-pyrazin-2-yl}-phenyl)-(4-pyrrolidin-1-yl-piperidin-1-yl)-methanone] was tested. Which IC50 did it give?
**A.** The IC50 was 160 nM.

**Q.** `CC(Oc1nc(-c2ccc(C(=O)NCCN3CCOCC3)cc2)cnc1N)c1c(Cl)cccc1Cl` (stereo not drawn) [II-158, 4-{5-Amino-6-[1-(2,6-dichloro-phenyl)-ethoxy]-pyrazin-2-yl}-N-(2-morpholin-4-yl-ethyl)-benzamide] was tested. Which IC50 did it give?
**A.** The IC50 was 320 nM.

**Q.** With `CC(Oc1nc(-c2ccc(C(=O)N3C[C@@H](C)N[C@@H](C)C3)cc2)cnc1N)c1c(Cl)cccc1Cl` (stereo partly drawn) [II-159, (4-{5-Amino-6-[1-(2,6-dichloro-phenyl)-ethoxy]-pyrazin-2-yl}-phenyl)-((3R,5S)-3,5-dimethyl-piperazin-1-yl)-methanone] as the compound, how does the IC50 read?
**A.** The IC50 was 140 nM.

**Q.** `CC(Oc1nc(-c2ccc(C(=O)NC3CCN(C)CC3)cc2)cnc1N)c1c(Cl)cccc1Cl` (stereo not drawn) [II-160, 4-{5-Amino-6-[1-(2,6-dichloro-phenyl)-ethoxy]-pyrazin-2-yl}-N-(1-methyl-piperidin-4-yl)-benzamide] was tested. Which IC50 did it give?
**A.** The IC50 was 120 nM.

**Q.** Which IC50 does the source give for `CC(Oc1nc(-c2ccc(C(=O)N3CCC[C@@H]3CN3CCCC3)cc2)cnc1N)c1c(Cl)cccc1Cl` (stereo partly drawn) [II-161, (4-{5-Amino-6-[1-(2,6-dichloro-phenyl)-ethoxy]-pyrazin-2-yl}-phenyl)-((R)-2-pyrrolidin-1-ylmethyl-pyrrolidin-1-yl)-methanone] here?
**A.** Its IC50 is 160 nM.

**Q.** Which IC50 does the source give for `CC(Oc1nc(-c2ccc(C(=O)N3CCC[C@H]3CN3CCCC3)cc2)cnc1N)c1c(Cl)cccc1Cl` (stereo partly drawn) [II-162, (4-{5-Amino-6-[1-(2,6-dichloro-phenyl)-ethoxy]-pyrazin-2-yl}-phenyl)-((S)-2-pyrrolidin-1-ylmethyl-pyrrolidin-1-yl)-methanone] here?
**A.** Its IC50 is 140 nM.

**Q.** With `CC(Oc1nc(-c2ccc(C(=O)N3CCN(C)CC3)cc2)cnc1N)c1c(Cl)cccc1Cl` (stereo not drawn) [II-163, (4-{5-Amino-6-[1-(2,6-dichloro-phenyl)-ethoxy]-pyrazin-2-yl}-phenyl)-(4-methyl-piperazin-1-yl)-methanone] as the compound, how does the IC50 read?
**A.** The IC50 was 150 nM.
